Laboratory results: patent publication US20260356851A1, “TRICYCLIC COMPOUNDS AND USES THEREOF” (HUTCHMED LIMITED, priority 2023, published 2026)
Where two headings read alike, the source gives them in different places.

What was measured:
Assay type in all cases: cell-based
[1] = target: T1, pERK1/2 (Thr202/Tyr204), NCI-1H441 (KRAS G12V) (Homo sapiens, UniProt P01116, G12V); test: Assay of intracellular pERK1/2 (Thr202/Tyr204) phosphorylation in NCI-H441 cells (KRAS G12V)
T1 construct: pERK1/2 HTRF read-out
T1 sequence (P01116 1-188 isoform P01116-2 G12V): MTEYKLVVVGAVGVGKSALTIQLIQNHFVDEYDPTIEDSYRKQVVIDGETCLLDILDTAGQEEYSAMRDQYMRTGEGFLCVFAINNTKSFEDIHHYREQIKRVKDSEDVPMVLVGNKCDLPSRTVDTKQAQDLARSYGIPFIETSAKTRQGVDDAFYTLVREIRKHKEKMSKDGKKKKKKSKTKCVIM
Procedure, shortened: (§1)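 HTRF detection of Thr202/Tyr204-phosphorylated ERK1/2 (665/615 nm ratio) in lysates from cells treated 2 days with serially 3-fold diluted compound.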

[2] = target: T2, pERK1/2 (Thr202/Tyr204), PANC-1 (KRAS G121D) (Homo sapiens, UniProt P01116, G12D); test: Assay of intracellular pERK1/2 (Thr202/Tyr204) phosphorylation in PANC-1 cells (KRAS G12D)
T2 construct: pERK1/2 HTRF read-out
T2 sequence (P01116 1-188 isoform P01116-2 G12D): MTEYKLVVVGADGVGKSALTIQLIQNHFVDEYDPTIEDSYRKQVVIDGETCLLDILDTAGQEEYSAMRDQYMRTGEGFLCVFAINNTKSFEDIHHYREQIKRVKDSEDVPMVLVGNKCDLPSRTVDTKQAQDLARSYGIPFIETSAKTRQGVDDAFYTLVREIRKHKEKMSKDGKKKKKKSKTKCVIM
Procedure, shortened: as §1

[3] = target: T3, pERK1/2 (Thr202/Tyr204), NCI-1H358 (KRAS G12C) (Homo sapiens, UniProt P01116, G12C); test: Assay of intracellular pERK1/2 (Thr202/Tyr204) phosphorylation in NCI-H358 cells (KRAS G12C)
T3 construct: pERK1/2 HTRF read-out
T3 sequence (P01116 1-188 isoform P01116-2 G12C): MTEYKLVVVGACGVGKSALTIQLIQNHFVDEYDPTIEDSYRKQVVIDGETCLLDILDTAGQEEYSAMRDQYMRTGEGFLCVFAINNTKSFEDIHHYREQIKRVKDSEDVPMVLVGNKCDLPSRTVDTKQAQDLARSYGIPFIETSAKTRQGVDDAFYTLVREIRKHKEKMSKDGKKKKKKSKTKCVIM
Procedure, shortened: as §1

[4] = pERK1/2, 2 days, read-out: NCI-H441 (KRAS G12V) IC50
[5] = pERK1/2, 2 days, read-out: PANC-1 (KRAS G12D) IC50
[6] = pERK1/2, 2 days, read-out: NCI-H358 (KRAS G12C) IC50

SMILES: CC(c1cccnc1N)N1CCOc2nc(-c3cc(O)cc4ccc(F)c(F)c34)c(F)c3nc(OC[C@@H]4CCCN4C)nc1c23 (single isomer, unassigned) [Compound 41, 4-(10-((R or S)-1-(2-aminopyridin-3-yl)ethyl)-4-fluoro-2-(((S)-1-methylpyrrolidin-2-yl)methoxy)-9,10-dihydro-8H-7-oxa-1,3,6,10-tetraazacyclohepta[de]naphthalen-5-yl)-5,6-difluoronaphthalen-2-ol]
- IC50 [1, 4]: 820 nM
- IC50 [2, 5]: > 1000 nM
- IC50 [3, 6]: 223 nM

SMILES: Cc1cc(N)cc(-c2nc3c4c(nc(OC[C@@]56CCCN5C[C@H](F)C6)nc4c2F)N(C(C)c2cc(F)cnc2N)CCO3)c1C(F)(F)F (stereo partly drawn) [Compound 173]
- IC50 [1, 4]: 0.8 nM
- IC50 [2, 5]: 7 nM
- IC50 [3, 6]: 0.5 nM

SMILES: Cc1cc2[nH]ncc2c(-c2nc3c4c(nc(O)nc4c2F)N(C(C)c2cccnc2N)CCO3)c1C (stereo not drawn) [Compound 3, 10-(1-(2-Aminopyridin-3-yl)ethyl)-5-(5,6-dimethyl-1H-indazol-4-yl)-4-fluoro-9,10-dihydro-8H-7-oxa-1,3,6,10-tetraazacyclohepta[de]naphthalen-2-ol]
- IC50 [1, 4]: > 1000 nM
- IC50 [2, 5]: > 1000 nM
- IC50 [3, 6]: > 1000 nM

SMILES: Cc1nc(N)cc(-c2nc3c4c(nc(OC[C@@]56CCCN5C[C@H](F)C6)nc4c2F)N(C(C)c2cccnc2N)[C@@H](C)CO3)c1C(F)(F)F (stereo partly drawn) [Compound 311]
- IC50 [1, 4]: 0.8 nM
- IC50 [2, 5]: 6 nM
- IC50 [3, 6]: 0.5 nM

SMILES: [2H][C@@]1(F)CN2CCC[C@@]2(COc2nc3c4c(nc(-c5cc(N)c(F)c(C)c5C(F)(F)F)c(F)c4n2)OCCN3C(C)c2cccnc2N)C1 (single isomer, unassigned) [Compound 169, (*)3-(1-(5-(5-amino-4-fluoro-3-methyl-2-(trifluoromethyl)phenyl)-4-fluoro-2-(((2S or 2R,7aS)-2-fluorotetrahydro-1H-pyrrolizin-7a(5H)-yl-2-d)methoxy)-8,9-dihydro-1OH-7-oxa-1,3,6,10-tetraazacyclohepta[de]naphthalen-10-yl)ethyl)pyridin-2-amine]
- IC50 [1, 4]: 2 nM
- IC50 [2, 5]: 17 nM
- IC50 [3, 6]: 0.7 nM

SMILES: CC(c1cccnc1N)N1c2nc(OC[C@@]34CCCN3C[C@H](F)C4)nc3c(F)c(-c4c(C(F)(F)F)ccc5ncccc45)nc(c23)OC[C@@H]1C (stereo partly drawn) [Compound 337]
- IC50 [1, 4]: > 100 nM
- IC50 [2, 5]: > 100 nM
- IC50 [3, 6]: > 100 nM

SMILES: CC(c1cccnc1N)N1CCOc2nc(-c3cc(O)cc(F)c3C3CC3)c(F)c3nc(OC[C@@H]4CCCN4C)nc1c23 (single isomer, unassigned) [Compound 34, 3-(10-((R or S)-1-(2-aminopyridin-3-yl)ethyl)-4-fluoro-2-(((S)-1-methylpyrrolidin-2-yl)methoxy)-9,10-dihydro-8H-7-oxa-1,3,6,10-tetraazacyclohepta[de]naphthalen-5-yl)-4-cyclopropyl-5-fluorophenol]
- IC50 [1, 4]: > 1000 nM
- IC50 [2, 5]: > 1000 nM
- IC50 [3, 6]: > 1000 nM

SMILES: Cc1c(F)c(N)cc(-c2nc3c4c(nc(OC[C@@]56CCCN5C[C@H](F)C6)nc4c2F)N(C2CCNC2)CCO3)c1C(F)(F)F (stereo partly drawn) [Compound 198]
- IC50 [1, 4]: > 100 nM
- IC50 [2, 5]: > 100 nM
- IC50 [3, 6]: > 100 nM

SMILES: Cc1c(F)c(N)cc(-c2nc3c4c(nc(OC[C@@]56CCCN5C[C@H](F)C6)nc4c2F)N(C(C)c2cccnc2N)C[C@@H](C)O3)c1C(F)(F)F (single isomer, unassigned) [Compound 248, 3-((R or S)-1-((R)-5-(5-amino-4-fluoro-3-methyl-2-(trifluoromethyl)phenyl)-4-fluoro-2-(((2R,7aS)-2-fluorotetrahydro-1H-pyrrolizin-7a(5H)-yl)methoxy)-8-methyl-8,9-dihydro-10H-7-oxa-1,3,6,10-tetraazacyclohepta[de]naphthalen-10-yl)ethyl)pyridin-2-amine]
- IC50 [1, 4]: 1 nM
- IC50 [2, 5]: 8 nM
- IC50 [3, 6]: 0.4 nM

SMILES: [2H]C1([2H])CC[C@@]2(COc3nc4c5c(nc(-c6cc(N)c(F)c(Cl)c6C(F)(F)F)c(F)c5n3)OC([2H])([2H])C([2H])([2H])N4C(C)c3cccnc3N)C[C@@H](F)CN12 (single isomer, unassigned) [Compound 223, 3-((R or S)-1-(5-(5-amino-3-chloro-4-fluoro-2-(trifluoromethyl)phenyl)-4-fluoro-2-(((2R,7aS)-2-fluorotetrahydro-1H-pyrrolizin-7a(5H)-yl-5,5-d2)methoxy)-8,9-dihydro-10H-7-oxa-1,3,6,10-tetraazacyclohepta[de]naphthalen-10-yl-8,8,9,9-d4)ethyl)pyridin-2-amine]
- IC50 [1, 4]: 7 nM
- IC50 [2, 5]: 20 nM
- IC50 [3, 6]: 2 nM

SMILES: Cc1ccnc(N)c1C(C)N1CCOc2nc(-c3cc(N)c(F)c(C)c3C(F)(F)F)c(F)c3nc(OC[C@@]45CCCN4C[C@H](F)C5)nc1c23 (single isomer, unassigned) [Compound 258, 3-((R or S)-1-(5-(5-amino-4-fluoro-3-methyl-2-(trifluoromethyl)phenyl)-4-fluoro-2-(((2R,7aS)-2-fluorotetrahydro-1H-pyrrolizin-7a(5H)-yl)methoxy)-8,9-dihydro-10H-7-oxa-1,3,6,10-tetraazacyclohepta[de]naphthalen-10-yl)ethyl)-4-methylpyridin-2-amine]
- IC50 [1, 4]: > 100 nM
- IC50 [2, 5]: > 100 nM
- IC50 [3, 6]: > 100 nM

SMILES: CC(c1cccnc1N)N1CCOc2nc(-c3cc(O)cc4ccc(F)c(F)c34)c(F)c3nc(OC[C@@H]4CCCN4C)nc1c23 (single isomer, unassigned) [Compound 42, 4-(10-((R or S)-1-(2-aminopyridin-3-yl)ethyl)-4-fluoro-2-(((S)-1-methylpyrrolidin-2-yl)methoxy)-9,10-dihydro-8H-7-oxa-1,3,6,10-tetraazacyclohepta[de]naphthalen-5-yl)-5,6-difluoronaphthalen-2-ol]
- IC50 [1, 4]: 5 nM
- IC50 [2, 5]: 69 nM
- IC50 [3, 6]: 0.9 nM

SMILES: CC(c1cccnc1N)N1c2nc(OC[C@@]34CCCN3C[C@H](F)C4)nc3c(F)c(-c4cc5[nH]ncc5cc4C(F)(F)F)nc(c23)OC[C@@H]1C (stereo partly drawn) [Compound 325]
- IC50 [1, 4]: 44 nM
- IC50 [2, 5]: > 100 nM
- IC50 [3, 6]: 28 nM

SMILES: CCNC(=O)Oc1cc(Cl)c(C2CC2)c(-c2nc3c4c(nc(OC[C@@]56CCCN5C[C@H](F)C6)nc4c2F)N(C(C)c2cccnc2N)[C@@H](C)CO3)c1 (stereo partly drawn) [Compound 293, (*)3-((9S)-10-(1-(2-aminopyridin-3-yl)ethyl)-4-fluoro-2-(((2R,7aS)-2-fluorotetrahydro-1H-pyrrolizin-7a(5H)-yl)methoxy)-9-methyl-9,10-dihydro-8H-7-oxa-1,3,6,10-tetraazacyclohepta[de]naphthalen-5-yl)-5-chloro-4-cyclopropylphenyl ethylcarbamate acetate]
- IC50 ([1]; read-out: NCI-H441 (KRAS G12V) IC50, pERK1/2, 2 days): 1 nM
- IC50 ([2]; read-out: PANC-1 (KRAS G12D) IC50, pERK1/2, 2 days): 0.5 nM
- IC50 ([3]; read-out: NCI-H358 (KRAS G12C) IC50, pERK1/2, 2 days): 1 nM

SMILES: CC(c1cccnc1N)N1c2nc(OC[C@@]34CCCN3C[C@H](F)C4)nc3c(F)c(-c4c(C(F)(F)F)ccc5c4CCCN5)nc(c23)OC[C@@H]1C (single isomer, unassigned; diastereomer 2) [Compound 339, (*)3-(1-((5R or 5S,9S)-4-fluoro-2-(((2R,7aS)-2-fluorotetrahydro-1H-pyrrolizin-7a(5H)-yl)methoxy)-9-methyl-5-(6-(trifluoromethyl)-1,2,3,4-tetrahydroquinolin-5-yl)-8,9-dihydro-10H-7-oxa-1,3,6,10-tetraazacyclohepta[de]naphthalen-10-yl)ethyl)pyridin-2-amine (diastereomer 2)]
- IC50 [1, 4]: > 100 nM
- IC50 [2, 5]: > 100 nM
- IC50 [3, 6]: > 100 nM
